From patent publication US8119661B2, “Piperidine derivatives and their use as muscarinic receptor modulators” (AstraZeneca AB, priority 2007, dated 2012)

Columns and labels:
[1] = target: T1, cloned human M2 receptor (Homo sapiens, UniProt P08172); experiment: hM2 receptor GTPγS binding; assay type: biochemical; conditions: CHO membranes expressing hM2, [35S]GTPγS binding
T1 construct: purchased Perkin-Elmer RBHM2M; host or cells: CHO cell membranes
T1 sequence (P08172 1-466): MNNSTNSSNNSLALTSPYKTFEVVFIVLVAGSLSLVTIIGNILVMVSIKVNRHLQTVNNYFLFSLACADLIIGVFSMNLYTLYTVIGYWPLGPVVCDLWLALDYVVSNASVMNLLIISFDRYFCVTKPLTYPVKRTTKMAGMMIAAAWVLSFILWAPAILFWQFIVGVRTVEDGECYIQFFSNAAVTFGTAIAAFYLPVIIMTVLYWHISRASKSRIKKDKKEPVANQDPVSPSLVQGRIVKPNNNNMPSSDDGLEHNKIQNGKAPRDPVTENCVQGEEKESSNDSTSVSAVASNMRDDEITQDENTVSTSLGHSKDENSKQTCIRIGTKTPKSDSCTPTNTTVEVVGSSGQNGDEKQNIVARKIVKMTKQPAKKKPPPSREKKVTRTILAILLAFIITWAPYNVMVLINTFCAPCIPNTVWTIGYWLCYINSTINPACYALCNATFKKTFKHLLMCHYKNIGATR
Protocol: Membranes produced from Chinese hamster ovary cells (CHO) expressing the cloned human M2 receptor (human Muscarinic receptor subtype 2, gene bank access NM_000739), are obtained from Perkin-Elmer (RBHM2M). The membranes are thawed at 37° C., passed 3 times through a 23-gauge blunt-end needle, diluted in the GTPγS binding buffer (50 mM Hepes, 20 mM NaOH, 100 mM NaCl, 1 mM EDTA, 5 mM MgCl2, pH 7.4, 100 μM DTT). The EC50, IC50 and Emax of the compounds of the invention are evaluated from 10-point dose-response curves (three fold concentration range) done in 60 μl in 384-well non-specific binding surface plate (Corning). Ten microliters from the dose-response curves plate (5× concentration) are transferred to another 384 well plate containing 25 μl of the following: 5 μg of hM2 membranes, 500 μg of Flashblue beads (Perkin-Elmer) and GDP 25 μM. An additional 15 μl containing 3.3× (60,000 dpm) of GTPγ^35S (0.4 nM final) are added to the wells resulting in a total well volume of 50 μl. Basal and maximal stimulated [^35S]GTPγS binding are determined in absence and presence of 30 μM final of acetylcholine agonist. The membranes/beads mix are pre-incubated for 15 minutes at room temperature with 25 μM GDP prior to distribution in plates (12.5 μM final). The reversal of acetylcholine-induced stimulation (2 μM final) of [^35S]GTPγS binding is used to assay the antagonist properties (IC50) of the compounds. The plates are incubated for 60 minutes at room temperature then centrifuged at 400 rpm for 5 minutes. The radioactivity (cpm) is counted in a Trilux (Perkin-Elmer).
(§1) Values of EC50, IC50 and Emax are obtained using sigmoidal fits of a non-linear curve-fitting program (XLfit version 4.2.2 Excel add-in version 4.2.2 build 18 math 1Q version 2.1.2 build 18) of percent stimulated [^35S]GTPγS binding vs. log(molar ligand). All pEC50 and pIC50 values are reported as arithmetic means±standard error of mean of ‘n’ independent experiments.

[2] = target: T2, cloned human M4 receptor (Homo sapiens, UniProt P08173); experiment: hM4 receptor GTPγS binding; assay type: biochemical; conditions: CHO membranes expressing hM4, [35S]GTPγS binding
T2 construct: purchased Perkin-Elmer RBHM4M; host or cells: CHO cell membranes
T2 sequence (P08173 1-479): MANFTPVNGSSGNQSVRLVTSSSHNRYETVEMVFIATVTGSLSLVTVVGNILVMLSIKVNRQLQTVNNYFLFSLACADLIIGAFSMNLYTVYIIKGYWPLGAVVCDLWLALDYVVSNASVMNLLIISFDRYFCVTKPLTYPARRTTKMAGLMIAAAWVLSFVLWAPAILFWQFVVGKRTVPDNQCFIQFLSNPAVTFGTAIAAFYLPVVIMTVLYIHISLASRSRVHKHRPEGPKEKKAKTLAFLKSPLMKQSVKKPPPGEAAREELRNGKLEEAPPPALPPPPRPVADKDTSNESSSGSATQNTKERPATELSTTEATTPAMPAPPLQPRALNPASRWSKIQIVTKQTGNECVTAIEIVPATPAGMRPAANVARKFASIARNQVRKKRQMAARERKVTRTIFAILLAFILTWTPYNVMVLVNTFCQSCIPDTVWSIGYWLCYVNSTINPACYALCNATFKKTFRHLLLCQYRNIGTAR
Protocol: Membranes produced from Chinese hamster ovary cells (CHO) expressing the cloned human M4 receptor (human Muscarinic receptor subtype 4, gene bank access NM_000741), are obtained from Perkin-Elmer (RBHM4M). The membranes are thawed at 37° C., passed 3 times through a 23-gauge blunt-end needle, diluted in the GTPγS binding buffer (50 mM Hepes, 20 mM NaOH, 100 mM NaCl, 1 mM EDTA, 5 mM MgCl2, pH 7.4, 100 μM DTT). The EC50, IC50 and Emax of the compounds of the invention are evaluated from 10-point dose-response curves (three fold concentration range) done in 60 μl in 384-well non-specific binding surface plate (Corning). Ten microliters from the dose-response curves plate (5× concentration) are transferred to another 384 well plate containing 25 μl of the following: 10 μg of hM4 membranes, 500 μg of Flashblue beads (Perkin-Elmer) and GDP 40 μM. An additional 15 μl containing 3.3× (60,000 dpm) of GTPγ^35S (0.4 nM final) are added to the wells resulting in a total well volume of 50 μl. Basal and maximal stimulated [^35S]GTPγS binding are determined in absence and presence of 30 μM final of acetylcholine agonist. The membranes/beads mix are pre-incubated for 15 minutes at room temperature with 40 μM GDP prior to distribution in plates (20 μM final). The reversal of acetylcholine-induced stimulation (10 μM final) of [^35S]GTPγS binding is used to assay the antagonist properties (IC50) of the compounds. The plates are incubated for 60 minutes at room temperature then centrifuged at 400 rpm for 5 minutes. The radioactivity (cpm) is counted in a Trilux (Perkin-Elmer).
as §1

Compound	EC50 [1] [nM]	EC50 [2] [nM]
CC1(N2CCC(N3C(=O)N[C@H]4CCCC[C@@H]43)CC2)CCN(C(=O)C2CC2)CC1 [Example 03, (3aS,7aS)-1-[1-[1-(cyclopropanecarbonyl)-4-methyl-4-piperidyl]-4-piperidyl]-3a,4,5,6,7,7a-hexahydro-3H-benzoimidazol-2-one]	> 1600	> 6500
CCC(=O)N1CCC(C)(N2CCC(N3C(=O)N[C@H]4CCCC[C@@H]43)CC2)CC1 [Example 18, (3aS,7aS)-3-[1-(4-methyl-1-propanoyl-4-piperidyl)-4-piperidyl]-3a,4,5,6,7,7a-hexahydro-1H-benzimidazol-2-one]	2340	> 30000
CCOC(=O)N1CCC(C)(N2CCC(N3C(=O)N[C@@H]4CCCC[C@@H]43)CC2)CC1 (relative stereo) [Example 12, Ethyl 4-[4-[(cis)-2-oxo-3a,4,5,6,7,7a-hexahydro-3H-benzoimidazol-1-yl]-1-piperidyl]-4-methyl-piperidine-1-carboxylate]	130	> 4000
CCOC(=O)N1CCC(C)(N2CCC(N3C(=O)N[C@@H]4CCCC[C@H]43)CC2)CC1 [Example 04, Ethyl 4-[4-[(3aR,7aR)-2-oxo-3a,4,5,6,7,7a-hexahydro-3H-benzoimidazol-1-yl]-1-piperidyl]-4-methyl-piperidine-1-carboxylate]	480	> 6100
C#CCOC(=O)N1CCC(C)(N2CCC(N3C(=O)N[C@H]4CCCC[C@@H]43)CC2)CC1 [Example 17, prop-2-ynyl 4-[4-[(3aS,7aS)-2-oxo-3a,4,5,6,7,7a-hexahydro-3H-benzimidazol-1-yl]-1-piperidyl]-4-methyl-piperidine-1-carboxylate]	48	> 30000
CC#CCOC(=O)N1CCC(C)(N2CCC(N3C(=O)N[C@H]4CCCC[C@@H]43)CC2)C1 (single isomer, unassigned) [Example 19]	204	919
CCOC(=O)N1CCC(C)(N2CCC(N3C(=O)N[C@H]4CCCC[C@@H]43)CC2)CC1 [Example 01, Ethyl 4-[4-[(3aS,7aS)-2-oxo-3a,4,5,6,7,7a-hexahydro-3H-benzoimidazol-1-yl]-1-piperidyl]-4-methyl-piperidine-1-carboxylate]	45	> 1200
CCOC(=O)N1CCC(C)(N2CCC(N3C(=O)N[C@@H]4CCCC[C@H]43)CC2)C1 (mixture of isomers) [Example 11, Ethyl 3-[4-[(3aR,7aR)-2-oxo-3a,4,5,6,7,7a-hexahydro-3H-benzoimidazol-1-yl]-1-piperidyl]-3-methyl-pyrrolidine-1-carboxylate]	2900	> 30000
CC1(N2CCC(N3C(=O)N[C@@H]4CCCC[C@H]43)CC2)CCN(C(=O)C2CC2)CC1 [Example 06, (3aR,7aR)-1-[1-[1-(cyclopropanecarbonyl)-4-methyl-4-piperidyl]-4-piperidyl]-3a,4,5,6,7,7a-hexahydro-3H-benzoimidazol-2-one]	> 30000	> 30000
CCOC(=O)N1CCC(C)(N2CCC(N3C(=O)N[C@H]4CCCC[C@@H]43)CC2)C1 (single isomer, unassigned) [Example 21]	4870	> 90000
CCOC(=O)N1CCC(C)(N2CCC(N3C(=O)C[C@@H]4CCCC[C@H]43)CC2)C1 (stereo in doubt) [Example 23, Ethyl 3-[4-[(3aS,7aR)-2-oxo-3a,4,5,6,7,7a-hexahydro-3H-indol-1-yl]-1-piperidyl]-3-methyl-pyrrolidine-1-carboxylate]	2680	17000
CC(C)OC(=O)N1CCC(C)(N2CCC(N3C(=O)C[C@H]4CCCC[C@@H]43)CC2)CC1 [Example 14, Propan-2-yl 4-[4-[(3aR,7aS)-2-oxo-3a,4,5,6,7,7a-hexahydro-3H-indol-1-yl]-1-piperidyl]-4-methyl-piperidine-1-carboxylate]	> 30000	> 30000
CC1(N2CCC(N3C(=O)N[C@H]4CCCC[C@@H]43)CC2)CCN(C(=O)OCCF)C1 (mixture of isomers) [Example 08, 2-fluoroethyl 3-[4-[(3aS,7aS)-2-oxo-3a,4,5,6,7,7a-hexahydro-3H-benzoimidazol-1-yl]-1-piperidyl]-3-methyl-pyrrolidine-1-carboxylate]	> 15000	> 30000
C#CCOC(=O)N1CCC(C)(N2CCC(N3C(=O)N[C@H]4CCCC[C@@H]43)CC2)C1 (mixture of isomers) [Example 09, Prop-2-ynyl 3-[4-[(3aS,7aS)-2-oxo-3a,4,5,6,7,7a-hexahydro-3H-benzoimidazol-1-yl]-1-piperidyl]-3-methyl-pyrrolidine-1-carboxylate]	> 1000	> 13000
COC(=O)N1CCC(C)(N2CCC(N3C(=O)N[C@H]4CCCC[C@@H]43)CC2)C1 (mixture of isomers) [Example 10, Methyl 3-[4-[(3aS,7aS)-2-oxo-3a,4,5,6,7,7a-hexahydro-3H-benzoimidazol-1-yl]-1-piperidyl]-3-methyl-pyrrolidine-1-carboxylate]	> 4000	> 30000
CC(C)OC(=O)N1CCC(C)(N2CCC(N3C(=O)N[C@@H]4CCCC[C@H]43)CC2)CC1 [Example 05, Propan-2-yl 4-[4-[(3aR,7aR)-2-oxo-3a,4,5,6,7,7a-hexahydro-3H-benzoimidazol-1-yl]-1-piperidyl]-4-methyl-piperidine-1-carboxylate]	> 14000	> 30000
CC#CCOC(=O)N1CCC(C)(N2CCC(N3C(=O)N[C@H]4CCCC[C@@H]43)CC2)CC1 [Example 16, But-2-ynyl 4-[4-[(3aS,7aS)-2-oxo-3a,4,5,6,7,7a-hexahydro-3H-benzimidazol-1-yl]-1-piperidyl]-4-methyl-piperidine-1-carboxylate]	121	> 90000
CCOC(=O)N1CCC(C)(N2CCC(N3C(=O)N[C@H]4CCCC[C@@H]43)CC2)C1 (mixture of isomers) [Example 07, Ethyl 3-[4-[(3aS,7aS)-2-oxo-3a,4,5,6,7,7a-hexahydro-3H-benzoimidazol-1-yl]-1-piperidyl]-3-methyl-pyrrolidine-1-carboxylate]	2300	> 21000
